Measured values published in patent US20230172940A1, “METHODS OF EXTENDING LIFESPAN BY ADMINISTERING FERROPTOSIS INHIBITORS” (COLLABORATIVE MEDICINAL DEVELOPMENT, LLC, priority 2020, published 2023).
Where a name gives a salt, the structure may show the parent alone.

Columns and labels:
iron = assay: X-ray fluorescence microscopy, elemental mapping of iron; format: in vivo, Caenorhabditis elegans; parameters: areal density of iron, Mean Diff. / total body iron, 75% Percentile / total body iron, Maximum / total body iron, Mean / total body iron, Minimum / total body iron, 25% Percentile / total body iron, Median / total body iron, Mean Diff.: unit not given here; settings: for areal density iron, 25% Percentile / areal density iron, 75% Percentile / areal density iron, Maximum / areal density iron, Mean / areal density iron, Median / areal density iron, Minimum / total body iron, 25% Percentile / total body iron, 75% Percentile / total body iron, Maximum / total body iron, Mean / total body iron, Median / total body iron, Minimum: 250 μM SIH or 200 μM Lip-1; for areal density of iron with aging: Tables 11 and 12; for total body iron, 25% Percentile / total body iron, 75% Percentile / total body iron, Maximum / total body iron, Mean / total body iron, Median / total body iron, Minimum: per worm
Protocol: Specimens were prepared for XFM using previously described protocols. Briefly, adult C. elegans were removed from NGM, washed four times in excess S-basal (0.1 M NaCl; 0.05 M KHPO4 at pH 6.0), briefly in ice-cold 18 MΩ resistant de-ionized H2O (Millipore) and twice in ice-cold CH3COONH4 (1.5% w/v). Samples were transferred onto 0.5 μm-thick silicon nitride (Si3N4) window (Silson), excess buffer wicked away and then the slide was frozen in liquid nitrogen (N2)-chilled liquid propane using a KF-80 plunge freezer (Leica Microsystems). The samples were lyophilised overnight at −40° C. and stored under low vacuum until required.
The distribution of metals was mapped at the X-ray Fluorescence Microscopy beamline at the Australian Synchrotron using the Maia detector system. The distribution of elements with atomic number<37 were mapped using an incident beam of 15.6 keV X-rays. This incident energy allowed clear separation of X-ray fluorescence (XRF) peaks from the relatively intense elastic and inelastic scatter. The incident beam (^˜1.71×10^9 photons s^−1) was focussed to approximately 2×2 μm^2(H×V, FWHM) in the sample plane and the specimen was continuously scanned through focus (1 mm sec^−1). The resulting XRF was binned in 0.8 jim intervals in both the horizontal and vertical giving virtual pixels spanning 0.64 jim^2 of the specimen probed with a dwell time of […]. XRF intensity was normalized to the incident beam flux monitored with a nitrogen filled ionization chamber with a 27 cm path length placed upstream of the focusing optics. Three single-element thin metal foils of known areal density (Mn 18.9 jig cm^−2, Fe 50.1 jig cm^−2 and Pt 42.2 jig cm^−2, Micromatter, Canada) were used to calibrate the relationship between fluorescence flux at the detector and elemental abundance. Dynamic Analysis, as implemented in GeoPIXE 7.3 (CSIRO), was used to deconvolve the full XRF spectra at each pixel in the scan region to produce quantitative elemental maps. This procedure includes a correction for an assumed specimen composition and thickness, in this case 30 jim of cellulose. Though unlikely to exactly match the actual sample characteristics, deviations from these assumptions are not significant for the results presented in this study as the effects of beam attenuation and self-absorption on calcium and iron XRF are negligible for a dried specimen of this type and size.
Analysis of elemental XRF maps was performed using a combination of tools native to GeoPIXE and ImageJ. Incident photons inelastically scattered (Compton scatter) from the sample detail the extent and internal structure of individual C. elegans. The differential scattering power of the specimens and substrate allowed individual animals (or parts thereof) to be identified as regions of interest (ROI) facilitating analysis of elemental content on a ‘per worm’ basis. This segmentation of each elemental map was achieved using the histogram of pixel intensities from Compton maps to locate the clusters within the image. ROIs composed of <10,000 pixels were deemed to be so small that their elemental content was not reflective of the elemental content of whole animals and so these were excluded from the analysis. The ‘non-worm’ region of each scan was used to calculate the value specimen elemental content was distinguishable from background noise, i.e. the critical value. The background corrected elemental maps were used to establish the areal densities and the total mass of each element associated with individual ROIs.

E. coli (strain OP50) = assay: Disk diffusion test; format: cell-based, Escherichia coli
Excerpt: C. elegans are bacteriophores and the E. coli (OP50) monoxenic diet can colonize the pharynx and intestine, resulting in death. Consequently, antibiotics are known to extend C. elegans lifespan. In addition, iron chelating compounds, such as EDTA have been reported to have antibiotic properties.

C. elegans = settings: DEM at 10-100 μM, minor glutathione loss; cited from earlier work
C. elegans iron-proteome = assay: Size exclusion chromatography-ICP-MS of soluble iron; format: in vivo, Caenorhabditis elegans; settings: aged C. elegans (10 days post adulthood)
Protocol: Liquid chromatography was performed using established protocols. Briefly^o samples of aged C. elegans were lysed using a Bioruptor Next Gen (Diagenode) bath sonicator set on HIGH and cooled to 4° C. using 10 cycles of 10 sec ON and 10 sec OFF^o in a 1:1 volume ratio of Tris-buffered saline (pH 8.0) with added proteinase inhibitors (EDTA-free; Roche). Sample homogenization was confirmed by microscopic inspection. Lysates were then centrifuged for 15 min at 175^o000 g at 4° C. The supernatant was removed and total protein concentration in the soluble fraction was determined using a NanoDrop UV spectrometer (Thermo Fisher Scientific) before being transferred to standard chromatography vials with polypropylene inserts (Agilent Technologies) and kept at 4° C. on a Peltier cooler for analysis. Size exclusion chromatography-inductively coupled plasma-mass spectrometry was performed using an Agilent Technologies 1100 Series liquid chromatography system with a BioSEC 5 SEC column (5 μm particle size^o 300 Å pore size^o I.D. 4.6 mm^o Agilent Technologies) and 7700× Series ICP-MS as previously described (Hare et al.^o 2016b). A buffer of 200 mM NH4NO3 was used for all separations at a flow rate of 0.4 mL min^−1. A total of 50 μg of soluble protein was loaded onto the column by manually adjusting the injection volume for each sample. Mass-to-charge ratios (m/z) for phosphorus (31) and iron (56) were monitored in time resolved analysis mode. Plots of the mean (±standard deviation) of three independent biological replicates are shown. Integration of the three major peaks was performed using Prism (ver. 7 for Mac OS X, Graphpad).

[1] = Day 4 Control vs. Day 4 treated (control minus treated)
[2] = Day 4 treated vs. Day 8 treated, same treatment
[3] = Day 8 Control vs. Day 8 treated (control minus treated)

SMILES | areal density iron, 25% Percentile (iron; Day 4) | areal density iron, 75% Percentile (iron; Day 4) | areal density iron, Maximum (iron; Day 4) | areal density iron, Mean (iron; Day 4) | areal density iron, Median (iron; Day 4) | areal density iron, Minimum (iron; Day 4) | areal density of iron, Mean Diff. (iron; [1]) | total body iron, Mean Diff. (iron; [1]) | areal density of iron, Mean Diff. (iron; [2]) | total body iron, Mean Diff. (iron; [2]) | areal density iron, 25% Percentile (iron; Day 8) | areal density iron, 75% Percentile (iron; Day 8) | areal density iron, Maximum (iron; Day 8) | areal density iron, Mean (iron; Day 8) | areal density iron, Median (iron; Day 8) | areal density iron, Minimum (iron; Day 8) | areal density of iron, Mean Diff. (iron; [3]) | total body iron, Mean Diff. (iron; [3]) | areal density of iron with aging (iron) | total body iron, 25% Percentile (iron; Day 4) | also measured
Clc1cccc(CNC2=Nc3ccccc3NC23CCNCC3)c1 [Lip-1, N-[(3-chlorophenyl)methyl]-spiro[piperidine-4,2′(1′H)-quinoxalin]-3′-amine] | 630.3 pg μm^−2 | 732.2 pg μm^−2 | 851.8 pg μm^−2 | 698.5 pg μm^−2 | 711.4 pg μm^−2 | 590.5 pg μm^−2 | −32.28 | 12.74 | −123.1 | −51.79 | 726.5 pg μm^−2 | 892.4 pg μm^−2 | 1143 pg μm^−2 | 821.6 pg μm^−2 | 800.5 pg μm^−2 | 644 pg μm^−2 | −1.229 | −10.7 | did not alter iron density | 91.34 | total body iron, 75% Percentile (iron; Day 4): 129.5; total body iron, Maximum (iron; Day 4): 148.6; total body iron, Mean (iron; Day 4): 113.3; total body iron, Median (iron; Day 4): 114.6; total body iron, Minimum (iron; Day 4): 71.51; total body iron, 25% Percentile (iron; Day 8): 128.9; total body iron, 75% Percentile (iron; Day 8): 189.6; total body iron, Maximum (iron; Day 8): 277.9; total body iron, Mean (iron; Day 8): 165.1; total body iron, Median (iron; Day 8): 157.2; total body iron, Minimum (iron; Day 8): 100; inhibition of E. coli (strain OP50) growth (E. coli (strain OP50)): no evidence for inhibition
CCOC(=O)/C=C\C(=O)OCC [DEM, Diethyl maleate] | – | – | – | – | – | – | – | – | – | – | – | – | – | – | – | – | – | – | – | – | effect on lifespan as reported (C. elegans): increasing lifespan via hormesis
O=C(N/N=C/c1ccccc1O)c1ccncc1 [SIH, Salicylaldehyde isonicotinoyl hydrazone] | 298.3 pg μm^−2 | 357.3 pg μm^−2 | 412.1 pg μm^−2 | 321.8 pg μm^−2 | 304.4 pg μm^−2 | 267.1 pg μm^−2 | 344.4 | 57.71 | −112.9 | −70.26 | 381.9 pg μm^−2 | 501.9 pg μm^−2 | 558 pg μm^−2 | 434.7 pg μm^−2 | 408.9 pg μm^−2 | 324.2 pg μm^−2 | 385.6 | 15.8 | dramatically reduced | 61.28 | Ferritin-bound iron, normalized peak area (C. elegans iron-proteome): approximately 50%; iron associated with the LMW peak, normalized peak area (C. elegans iron-proteome): approximately 40%; iron bound within HMW species (C. elegans iron-proteome): unaffected; areal density of iron, Mean Diff. (iron; Day 4 SIH vs. Day 4 Lip-1): −376.6; total body iron, Mean Diff. (iron; Day 4 SIH vs. Day 4 Lip-1): −44.97; total iron load (iron; Day 8): on par with the untreated control group; areal density of iron, Mean Diff. (iron; Day 8 SIH vs. Day 8 Lip-1): −389.9; total body iron, Mean Diff. (iron; Day 8 SIH vs. Day 8 Lip-1): −26.49; total body iron, 75% Percentile (iron; Day 4): 71.8; total body iron, Maximum (iron; Day 4): 98.92; total body iron, Mean (iron; Day 4): 68.37; total body iron, Median (iron; Day 4): 66.78; total body iron, Minimum (iron; Day 4): 41.07; total body iron, 25% Percentile (iron; Day 8): 117.5; total body iron, 75% Percentile (iron; Day 8): 169.5; total body iron, Maximum (iron; Day 8): 202; total body iron, Mean (iron; Day 8): 138.6; total body iron, Median (iron; Day 8): 127.5; total body iron, Minimum (iron; Day 8): 74.16; inhibition of E. coli (strain OP50) growth (E. coli (strain OP50)): no evidence for inhibition
